Source: PubChem BioAssay AID330 (DTP/NCI, 2004)
Toxic doses and inconclusive results are not listed.

Test system: P388 leukemia ip, CD2F1 mice, survival T/C
Test: NCI In Vivo Anticancer Drug Screen. Data for tumor model P388 Leukemia (intraperitoneal) in CD2F1 (CDF1) mice
Conditions: endpoint: median survival time, higher = longer survival
Outline: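 Mice carrying the transplanted tumor received test compound or vehicle. Survival was recorded in each group, and the value is the treated-group measurement divided by that of the vehicle-treated control group.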

[1] = dose: 60.0 mg/kg/injection, schedule: Q01DX005 (ip), vehicle: saline with Tween-80
[2] = dose: 120.0 mg/kg/injection, schedule: Q01DX005 (ip), vehicle: saline with Tween-80
[3] = dose: 50.0 mg/kg/injection, schedule: Q01DX005 (ip), vehicle: saline with Tween-80
[4] = dose: 100.0 mg/kg/injection, schedule: Q01DX005 (ip), vehicle: saline with Tween-80
[5] = dose: 200.0 mg/kg/injection, schedule: Q01DX005 (ip), vehicle: saline with Tween-80
[6] = dose: 50.0 mg/kg/injection, schedule: Q01DX009 (ip), vehicle: saline
[7] = dose: 100.0 mg/kg/injection, schedule: Q01DX009 (ip), vehicle: saline
[8] = dose: 50.0 mg/kg/injection, schedule: Q01DX009 (ip), vehicle: Klucel (hydroxypropylcellulose) (HPC)
[9] = dose: 240.0 mg/kg/injection, schedule: Q01DX005 (ip), vehicle: saline with Tween-80

## Cc1nc2sccn2c1C#N
dose: 12.5 mg/kg/injection, schedule: Q01DX001 (ip), vehicle: Klucel (hydroxypropylcellulose) (HPC)
  T/C: 117 % of control
dose: 25.0 mg/kg/injection, schedule: Q01DX001 (ip), vehicle: Klucel (hydroxypropylcellulose) (HPC)
  T/C: 102 % of control
dose: 50.0 mg/kg/injection, schedule: Q01DX001 (ip), vehicle: Klucel (hydroxypropylcellulose) (HPC)
  T/C: 102 % of control

## C=C(C)C#CCN(CCO)C(C)C
[1]
  T/C: 102 % of control
[2]
  T/C: 98 % of control

## CCCCN(CCCC)CC(O)c1ccc(OC)c2ccccc12 (configuration not stated)
[3]
  T/C: 102 % of control
[4]
  T/C: 107 % of control
[5]
  T/C: 98 % of control

## CC1C(=O)OC2C1CCC1(C)C=C(Cl)C(=O)C(C)(Cl)C21O (configuration not stated)
dose: 50.0 mg/kg/injection, schedule: Q04DX002 (ip), vehicle: saline with Tween-80
  T/C: 111 % of control
dose: 100.0 mg/kg/injection, schedule: Q04DX002 (ip), vehicle: saline with Tween-80
  T/C: 107 % of control
dose: 200.0 mg/kg/injection, schedule: Q04DX002 (ip), vehicle: saline with Tween-80
  T/C: 100 % of control

## CCC[CH2][Sn]([CH2]CCC)([CH2]CCC)[CH2]CCN(C)C
[6]
  T/C: 99 % of control
[7]
  T/C: 100 % of control

## O=c1[nH]c(=O)c2ccccc2o1
dose: 6.25 mg/kg/injection, schedule: Q01DX009 (ip), vehicle: Klucel (hydroxypropylcellulose) (HPC)
  T/C: 104 % of control
dose: 12.5 mg/kg/injection, schedule: Q01DX009 (ip), vehicle: Klucel (hydroxypropylcellulose) (HPC)
  T/C: 111 % of control
dose: 25.0 mg/kg/injection, schedule: Q01DX009 (ip), vehicle: Klucel (hydroxypropylcellulose) (HPC)
  T/C: 110 % of control
[8]
  T/C: 106 % of control

## CC(C)(/C=C/c1ccccc1)N=Cc1ccccc1
[1]
  T/C: 100 % of control
[2]
  T/C: 104 % of control
[9]
  T/C: 98 % of control

## COC(=O)CCc1c(C)nc(N(C)C)oc1=O
dose: 60.0 mg/kg/injection, schedule: Q01DX005 (ip), vehicle: saline
  T/C: 100 % of control
dose: 120.0 mg/kg/injection, schedule: Q01DX005 (ip), vehicle: saline
  T/C: 100 % of control
dose: 240.0 mg/kg/injection, schedule: Q01DX005 (ip), vehicle: saline
  T/C: 99 % of control

## Cc1cc2c(C#N)c3ccccc3c(=O)n2c2ccccc12
dose: 50.0 mg/kg/injection, schedule: Q01DX005 (ip), vehicle: Klucel (hydroxypropylcellulose) (HPC)
  T/C: 98 % of control
dose: 100.0 mg/kg/injection, schedule: Q01DX005 (ip), vehicle: Klucel (hydroxypropylcellulose) (HPC)
  T/C: 96 % of control
dose: 200.0 mg/kg/injection, schedule: Q01DX005 (ip), vehicle: Klucel (hydroxypropylcellulose) (HPC)
  T/C: 100 % of control

## C/C=C\C=C/NC(=O)N1CCCC1
[1]
  T/C: 113 % of control
[2]
  T/C: 118 % of control
[9]
  T/C: 116 % of control

## CC1(CO)CSC(Nc2ccc(F)cc2)=N1 (configuration not stated)
dose: 50.0 mg/kg/injection, schedule: Q01DX009 (ip), vehicle: saline with Tween-80
  T/C: 104 % of control
dose: 100.0 mg/kg/injection, schedule: Q01DX009 (ip), vehicle: saline with Tween-80
  T/C: 98 % of control
dose: 200.0 mg/kg/injection, schedule: Q01DX009 (ip), vehicle: saline with Tween-80
  T/C: 104 % of control

## Fc1ccc(NC(=S)Nc2ccccc2C(F)(F)F)cc1
[8]
  T/C: 92 % of control
dose: 100.0 mg/kg/injection, schedule: Q01DX009 (ip), vehicle: Klucel (hydroxypropylcellulose) (HPC)
  T/C: 92 % of control
dose: 200.0 mg/kg/injection, schedule: Q01DX009 (ip), vehicle: Klucel (hydroxypropylcellulose) (HPC)
  T/C: 100 % of control

## CCN(CC)c1ccc2c(-c3ccccc3C(=O)O)c3ccc(=[N+](CC)CC)cc-3oc2c1
dose: 5.0 mg/kg/injection, schedule: Q01DX009 (ip), vehicle: saline with Tween-80
  T/C: 104 % of control
dose: 10.0 mg/kg/injection, schedule: Q01DX009 (ip), vehicle: saline with Tween-80
  T/C: 104 % of control
dose: 20.0 mg/kg/injection, schedule: Q01DX009 (ip), vehicle: saline with Tween-80
  T/C: 100 % of control

## CC(C)=CBr
[6]
  T/C: 105 % of control
[7]
  T/C: 105 % of control
dose: 200.0 mg/kg/injection, schedule: Q01DX009 (ip), vehicle: saline
  T/C: 110 % of control

## CC(C)C(NC(=O)C1CSC(C)(C)N1C=O)C(=O)O (configuration not stated)
[3]
  T/C: 102 % of control
[4]
  T/C: 100 % of control
[5]
  T/C: 102 % of control

## CCCCCCOc1ccc(OCCCC[N+]2(CC)CCCCC2)cc1
dose: 1.56 mg/kg/injection, schedule: Q01DX009 (ip), vehicle: saline
  T/C: 105 % of control
dose: 3.12 mg/kg/injection, schedule: Q01DX009 (ip), vehicle: saline
  T/C: 106 % of control
dose: 6.25 mg/kg/injection, schedule: Q01DX009 (ip), vehicle: saline
  T/C: 104 % of control
